Tested on: patients with seasonal allergic rhinitis (SAR)
Experiment: MP 428 two-week randomized double-blind study: Total Nasal Symptom Score (TNSS), change from baseline
Format: in vivo, human
Set-up: key to Change from Baseline in AM TNSS, Mean / Change from Baseline in AM TNSS, LS Mean / Change from Baseline in AM TNSS, Median: TNSS sum of 4 symptoms each 0-3 (0=none, 3=severe); change from baseline
Method: A two-week, randomized, double-blind study, which evaluated the effects of the co-administration of ASTELIN® (azelastine hydrochloride (HCl)) and FLONASE® (fluticasone propionate) compared to either product alone in patients with seasonal allergic rhinitis (SAR) was conducted during the 2006 Texas mountain cedar season. After a 5-day placebo lead-in period, 151 patients with moderate-to-severe allergic rhinitis symptoms were randomized to either: (1) (49 total patients) ASTELIN® (azelastine hydrochloride (HCl)) plus placebo saline nasal spray 2 sprays per nostril, 15 minutes apart, twice daily (AM & PM); (2) (50 total patients) FLONASE® (fluticasone propionate) plus placebo saline nasal spray, 2 sprays per nostril, 15 minutes apart, once daily (AM) and two sessions of placebo saline nasal spray, 2 sprays per nostril, 15 minutes apart (PM); or (3) (52 total patients) the co-administration of ASTELIN® (azelastine hydrochloride (HCl)) 2 sprays per nostril plus FLONASE® (fluticasone propionate) 2 sprays per nostril (AM), 15 minutes apart, and ASTELIN® (azelastine hydrochloride (HCl)) 2 sprays per nostril plus placebo saline nasal spray, 15 minutes apart, (PM) for a 2-week double-blind treatment period.
The primary efficacy variable was the change from baseline in the Total Nasal Symptom Score (TNSS), which comprised sneezing, itchy nose, runny nose, and nasal congestion (individual symptoms scores were assigned a value between 0 and 3, where 0=no symptoms and 3=severe symptoms). This study was not statistically designed to assess the differences between ASTELIN® and FLONASE®.

[1] = Day 9, Intent-to-Treat Population
[2] = Day 10, Intent-to-Treat Population
[3] = Day 10, Per-Protocol Population
[4] = Day 11, Intent-to-Treat Population
[5] = Day 11, Per-Protocol Population
[6] = Day 12, Intent-to-Treat Population

For `CCC(=O)O[C@]1(C(=O)SCF)[C@H](C)C[C@H]2[C@@H]3C[C@H](F)C4=CC(=O)C=C[C@]4(C)[C@@]3(F)[C@@H](O)C[C@@]21C` [Fluticasone, fluticasone propionate], the “Change from Baseline in AM TNSS, Median” value [1] was −1.83, the “Change from Baseline in AM and PM Combined TNSS, Mean” value [1] was −5.08 and the “Change from Baseline in AM and PM Combined TNSS, Median” value [1] was −4.58. The “Change from Baseline in PM TNSS, LS Mean” value [1] was −2.73, the “Change from Baseline in PM TNSS, Mean” value [1] was −2.69 and the “Change from Baseline in PM TNSS, Median” value [1] was −2.00. The “Percent Change from Baseline in AM TNSS, LS Mean” value [1] was −24.94%, the “Percent Change from Baseline in AM TNSS, Mean” value [1] was −24.52% and the “Percent Change from Baseline in AM TNSS, Median” value [1] was −21.95%. For the same compound, the “Percent Change from Baseline in AM and PM Combined TNSS, LS Mean” value [1] was −26.50%, the “Percent Change from Baseline in AM and PM Combined TNSS, Mean” value [1] was −25.94% and the “Percent Change from Baseline in AM and PM Combined TNSS, Median” value [1] was −23.40%. The “Percent Change from Baseline in PM TNSS, LS Mean” value [1] was −27.82%, the “Percent Change from Baseline in PM TNSS, Mean” value [1] was −27.18% and the “Percent Change from Baseline in PM TNSS, Median” value [1] was −22.22%. The “Change from Baseline in AM and PM Combined TNSS, LS Mean” value (Day 9, Intent-to-Treat Population, ANCOVA model) was −5.17, the “Change from Baseline in AM and PM Combined TNSS, LS Mean” value (Day 9, Per-Protocol Population) was −5.21 and the “Change from Baseline in AM and PM Combined TNSS, Mean” value (Day 9, Per-Protocol Population) was −5.18. The “Change from Baseline in AM and PM Combined TNSS, Median” value (Day 9, Per-Protocol Population) was −4.58, the “Percent Change from Baseline in AM and PM Combined TNSS, LS Mean” value (Day 9, Per-Protocol Population) was −26.65% and the “Percent Change from Baseline in AM and PM Combined TNSS, Mean” value (Day 9, Per-Protocol Population) was −26.33%. The “Percent Change from Baseline in AM and PM Combined TNSS, Median” value (Day 9, Per-Protocol Population) was −23.40%, the “Change from Baseline in AM TNSS, LS Mean” value [2] was −2.74 and the “Change from Baseline in AM TNSS, Mean” value [2] was −2.73. For the same compound, the “Change from Baseline in AM TNSS, Median” value [2] was −2.80, the “Change from Baseline in AM and PM Combined TNSS, Mean” value [2] was −5.61 and the “Change from Baseline in AM and PM Combined TNSS, Median” value [2] was −4.83. The “Change from Baseline in PM TNSS, LS Mean” value [2] was −2.90, the “Change from Baseline in PM TNSS, Mean” value [2] was −2.88 and the “Change from Baseline in PM TNSS, Median” value [2] was −2.60. For the same compound, the “Percent Change from Baseline in AM TNSS, LS Mean” value [2] was −28.09%, the “Percent Change from Baseline in AM TNSS, Mean” value [2] was −28.06% and the “Percent Change from Baseline in AM TNSS, Median” value [2] was −28.36%. The “Percent Change from Baseline in AM and PM Combined TNSS, LS Mean” value [2] was −28.93%, the “Percent Change from Baseline in AM and PM Combined TNSS, Mean” value [2] was −28.76% and the “Percent Change from Baseline in AM and PM Combined TNSS, Median” value [2] was −27.10%. For the same compound, the “Percent Change from Baseline in PM TNSS, LS Mean” value [2] was −29.73%, the “Percent Change from Baseline in PM TNSS, Mean” value [2] was −29.48% and the “Percent Change from Baseline in PM TNSS, Median” value [2] was −27.27%. The “Change from Baseline in AM and PM Combined TNSS, LS Mean” value (Day 10, Intent-to-Treat Population, ANCOVA model) was −5.64, the “Change from Baseline in AM and PM Combined TNSS, LS Mean” value [3] was −5.70 and the “Change from Baseline in AM and PM Combined TNSS, Mean” value [3] was −5.74. The “Change from Baseline in AM and PM Combined TNSS, Median” value [3] was −4.83, the “Percent Change from Baseline in AM and PM Combined TNSS, LS Mean” value [3] was −29.19% and the “Percent Change from Baseline in AM and PM Combined TNSS, Mean” value [3] was −29.26%. For the same compound, the “Percent Change from Baseline in AM and PM Combined TNSS, Median” value [3] was −27.10%, the “Change from Baseline in AM TNSS, LS Mean” value [4] was −2.52 and the “Change from Baseline in AM TNSS, Mean” value [4] was −2.49. The “Change from Baseline in AM TNSS, Median” value [4] was −2.00, the “Change from Baseline in AM and PM Combined TNSS, Mean” value [4] was −5.77 and the “Change from Baseline in AM and PM Combined TNSS, Median” value [4] was −4.83. For the same compound, the “Change from Baseline in PM TNSS, LS Mean” value [4] was −3.33, the “Change from Baseline in PM TNSS, Mean” value [4] was −3.29 and the “Change from Baseline in PM TNSS, Median” value [4] was −3.00. The “Percent Change from Baseline in AM TNSS, LS Mean” value [4] was −25.25%, the “Percent Change from Baseline in AM TNSS, Mean” value [4] was −25.02% and the “Percent Change from Baseline in AM TNSS, Median” value [4] was −18.37%. For the same compound, the “Percent Change from Baseline in AM and PM Combined TNSS, LS Mean” value [4] was −29.71%, the “Percent Change from Baseline in AM and PM Combined TNSS, Mean” value [4] was −29.30% and the “Percent Change from Baseline in AM and PM Combined TNSS, Median” value [4] was −27.71%. For the same compound, the “Percent Change from Baseline in PM TNSS, LS Mean” value [4] was −34.15%, the “Percent Change from Baseline in PM TNSS, Mean” value [4] was −33.54% and the “Percent Change from Baseline in PM TNSS, Median” value [4] was −33.33%. For the same compound, the “Change from Baseline in AM and PM Combined TNSS, LS Mean” value (Day 11, Intent-to-Treat Population, ANCOVA model) was −5.85, the “Change from Baseline in AM and PM Combined TNSS, LS Mean” value [5] was −5.89 and the “Change from Baseline in AM and PM Combined TNSS, Mean” value [5] was −5.89. The “Change from Baseline in AM and PM Combined TNSS, Median” value [5] was −4.83, the “Percent Change from Baseline in AM and PM Combined TNSS, LS Mean” value [5] was −29.83% and the “Percent Change from Baseline in AM and PM Combined TNSS, Mean” value [5] was −29.69%. For the same compound, the “Percent Change from Baseline in AM and PM Combined TNSS, Median” value [5] was −27.71%, the “Change from Baseline in AM TNSS, LS Mean” value [6] was −2.99 and the “Change from Baseline in AM TNSS, Mean” value [6] was −2.98. The “Change from Baseline in AM TNSS, Median” value [6] was −2.75, the “Change from Baseline in AM and PM Combined TNSS, Mean” value [6] was −6.08 and the “Change from Baseline in AM and PM Combined TNSS, Median” value [6] was −5.17. For the same compound, the “Change from Baseline in PM TNSS, LS Mean” value [6] was −3.13, the “Change from Baseline in PM TNSS, Mean” value [6] was −3.10 and the “Change from Baseline in PM TNSS, Median” value [6] was −3.00. For the same compound, the “Percent Change from Baseline in AM TNSS, LS Mean” value [6] was −30.64%, the “Percent Change from Baseline in AM TNSS, Mean” value [6] was −30.49% and the “Percent Change from Baseline in AM TNSS, Median” value [6] was −26.83%. The “Percent Change from Baseline in AM and PM Combined TNSS, LS Mean” value [6] was −31.31%, the “Percent Change from Baseline in AM and PM Combined TNSS, Mean” value [6] was −31.04% and the “Percent Change from Baseline in AM and PM Combined TNSS, Median” value [6] was −27.78%. For the same compound, the “Percent Change from Baseline in PM TNSS, LS Mean” value [6] was −32.00% and the “Percent Change from Baseline in PM TNSS, Mean” value [6] was −31.52%.
